Data: patent US20150299182A1, “CRYSTALLINE FORMS OF (1S)-1-[5-(AMINO)-1,2,4-THIADIAZOL-3-YL]ETHANE-1,2-DIOL” (Array BioPharma Inc., priority 2012, published 2015)
“Also recorded” adds a separate entry of the source. Structures can show the parent of a compound that is named as a salt.

Key:
[1] = Moisture balance / vapor sorption (hygroscopicity); format: physicochemical; details: for phase post vapor sorption experiment: based on XRPD results; for hygroscopicity: 5% to 95% relative humidity; for relative humidity above which the material is hygroscopic: vapor sorption curve; for sorbed water retained: upon drying back down to ambient relative humidity; for relative humidity by which the material fully re-hydrates: after drying to 5% relative humidity
Description: Moisture balance data was collected using a VTI SGA 100 or SGA CX symmetrical vapor sorption analyzer. Relative humidity was varied in increments or 5%, starting at 5% relative humidity thereby increasing to 95% relative humidity, and then undergoing a drying cycle back to 5% relative humidity. Equilibrium criteria was set at 0.01% weight change in 1 minute with a max equilibrium time of 180 minutes. Approximately 1-15 mg of sample was used.

[2] = 4 months
Description: (§1) Chemical and physical stability was initiated on these forms and samples were stored at 60° C., 40° C./75% RH, 25° C./60% RH, and 5° C.

[3] = Chemical and physical solid state stability on storage; details: for form change on storage: up to 4 months (phosphate salt up to 6 weeks)
Description: as §1

[4] = Storage at ambient conditions (form conversion); format: physicochemical; details: stored at ambient conditions
[5] = Exposure to 95% relative humidity chamber/jar, then XRPD; format: physicochemical
Description: The DSC curve indicates a broad endotherm around 150° C. (attributed to desolvation), and one sharp endotherm around 193° C. (attributed to a melt). The TG curve indicates a 5.0% weight loss up to 175° C.
The phosphate salt Form D material was generated from desolvating Form C, and a representative XRPD pattern is shown in FIG. 34. The sample appears to be crystalline with an irregular morphology. The DSC curve indicates a sharp endotherm around 193° C. (attributed to a melt). […] The material appears to retain this sorbed water upon drying down to 15% relative humidity; however, upon reaching 5% relative humidity the material losses all of its sorbed water and returns to dry weight.

[6] = vapor sorption, as high as 95% relative humidity

| Compound | phase post vapor sorption experiment [1] | hygroscopicity ([1]; vapor sorption) | relative humidity above which the material is hygroscopic [1] | weight change [1, 6] [%] | stability of the phase as a function of relative humidity [1] | other results |
| --- | --- | --- | --- | --- | --- | --- |
| Cc1ncccc1Oc1cc(Sc2ccccn2)cnc1Nc1nc([C@H](O)CO)ns1 [Amorphous AMG151, (1S)-1-[5-({3-[(2-methylpyridin-3-yl)oxy]-5-(pyridin-2-ylsulfanyl)pyridin-2-yl}amino)-1,2,4-thiadiazol-3-yl]ethane-1,2-diol] | remained unchanged | hygroscopic |  |  |  |  |
| Cc1ncccc1Oc1cc(Sc2ccccn2)cnc1Nc1nc([C@H](O)CO)ns1 [Form A, (1S)-1-[5-({3-[(2-methylpyridin-3-yl)oxy]-5-(pyridin-2-ylsulfanyl)pyridin-2-yl}amino)-1,2,4-thiadiazol-3-yl]ethane-1,2-diol] | remained unchanged | non-hygroscopic |  |  |  |  |
| Cc1ncccc1Oc1cc(Sc2ccccn2)cnc1Nc1nc([C@H](O)CO)ns1 [Form G, (1S)-1-[5-({3-[(2-methylpyridin-3-yl)oxy]-5-(pyridin-2-ylsulfanyl)pyridin-2-yl}amino)-1,2,4-thiadiazol-3-yl]ethane-1,2-diol] |  |  |  |  |  | form conversion on storage [4]: readily convert to Form F |
| Cc1ncccc1Oc1cc(Sc2ccccn2)cnc1Nc1nc([C@H](O)CO)ns1 [HCl salt Form A, (1S)-1-[5-({3-[(2-methylpyridin-3-yl)oxy]-5-(pyridin-2-ylsulfanyl)pyridin-2-yl}amino)-1,2,4-thiadiazol-3-yl]ethane-1,2-diol] | converted to an amorphous phase | hygroscopic | above 55 % relative humidity | 9 |  |  |
| Cc1ncccc1Oc1cc(Sc2ccccn2)cnc1Nc1nc([C@H](O)CO)ns1 [Hydrate Form C, (1S)-1-[5-({3-[(2-methylpyridin-3-yl)oxy]-5-(pyridin-2-ylsulfanyl)pyridin-2-yl}amino)-1,2,4-thiadiazol-3-yl]ethane-1,2-diol] | remained unchanged | non hygroscopic; also recorded: non-hygroscopic |  | 0.25 |  | wt change ([1]; from 5% to 95% relative humidity): < 0.5%; form change on storage ([3]; 40° C./75% RH): no form change; time after which conversion to Form A was found ([3]; 60° C.): 2 weeks; form change on storage ([3]; 60° C., listed as free base mono-hydrate): converted to Form A |
| Cc1ncccc1Oc1cc(Sc2ccccn2)cnc1Nc1nc([C@H](O)CO)ns1 [MSA salt Form C, (1S)-1-[5-({3-[(2-methylpyridin-3-yl)oxy]-5-(pyridin-2-ylsulfanyl)pyridin-2-yl}amino)-1,2,4-thiadiazol-3-yl]ethane-1,2-diol] | remained unchanged | hygroscopic | above 75 % relative humidity | 18 |  | sorbed water retained [1]: 2-3% |
| Cc1ncccc1Oc1cc(Sc2ccccn2)cnc1Nc1nc([C@H](O)CO)ns1 [fumarate co-crystal Form A, (1S)-1-[5-({3-[(2-methylpyridin-3-yl)oxy]-5-(pyridin-2-ylsulfanyl)pyridin-2-yl}amino)-1,2,4-thiadiazol-3-yl]ethane-1,2-diol] | remained unchanged | non-hygroscopic |  | 0.075 |  | form change on storage ([3]; 40° C./75% RH): no form change; form change on storage ([3]; 60° C.): no form change |
| Cc1ncccc1Oc1cc(Sc2ccccn2)cnc1Nc1nc([C@H](O)CO)ns1 [phosphate salt Form A, (1S)-1-[5-({3-[(2-methylpyridin-3-yl)oxy]-5-(pyridin-2-ylsulfanyl)pyridin-2-yl}amino)-1,2,4-thiadiazol-3-yl]ethane-1,2-diol] | remained unchanged | non-hygroscopic |  | 0.8 |  | relative humidity by which the material fully re-hydrates [1]: ≤ 55 % relative humidity |
| Cc1ncccc1Oc1cc(Sc2ccccn2)cnc1Nc1nc([C@H](O)CO)ns1 [phosphate salt Form C, (1S)-1-[5-({3-[(2-methylpyridin-3-yl)oxy]-5-(pyridin-2-ylsulfanyl)pyridin-2-yl}amino)-1,2,4-thiadiazol-3-yl]ethane-1,2-diol] |  |  |  |  | unstable as a function of ambient relative humidity | form after exposure to 95% relative humidity [5]: converted to Form A |
| Cc1ncccc1Oc1cc(Sc2ccccn2)cnc1Nc1nc([C@H](O)CO)ns1 [phosphate salt Form D, (1S)-1-[5-({3-[(2-methylpyridin-3-yl)oxy]-5-(pyridin-2-ylsulfanyl)pyridin-2-yl}amino)-1,2,4-thiadiazol-3-yl]ethane-1,2-diol] | remained unchanged | hygroscopic | above 55 % relative humidity |  | unstable as a function of ambient relative humidity | weight change ([1]; around 75% relative humidity (appears to convert to a mono-hydrate)): 3.0%; form after exposure to 95% relative humidity [5]: convert to Form E |
| Cc1ncccc1Oc1cc(Sc2ccccn2)cnc1Nc1nc([C@H](O)CO)ns1 [phosphate salt Form E, (1S)-1-[5-({3-[(2-methylpyridin-3-yl)oxy]-5-(pyridin-2-ylsulfanyl)pyridin-2-yl}amino)-1,2,4-thiadiazol-3-yl]ethane-1,2-diol] |  | slightly hygroscopic | Above 65 % relative humidity |  | unstable as a function of ambient relative humidity | relative humidity by which the material fully re-hydrates [1]: ≤ 65 % relative humidity |
| Cc1ncccc1Oc1cc(Sc2ccccn2)cnc1Nc1nc([C@H](O)CO)ns1 [phosphate salt, (1S)-1-[5-({3-[(2-methylpyridin-3-yl)oxy]-5-(pyridin-2-ylsulfanyl)pyridin-2-yl}amino)-1,2,4-thiadiazol-3-yl]ethane-1,2-diol] |  |  |  |  |  | time found stable ([3]; 40° C./75% RH): up to 6 weeks; form change on storage ([3]; 40° C./75% RH): no form change; time found stable ([3]; 60° C.): up to 6 weeks; form change on storage ([3]; 60° C.): no form change |

Now from value to compound, other results behind:

| phase post vapor sorption experiment [1] | hygroscopicity ([1]; vapor sorption) | relative humidity above which the material is hygroscopic [1] | weight change [1, 6] [%] | Compound | stability of the phase as a function of relative humidity [1] | other results |
| --- | --- | --- | --- | --- | --- | --- |
| remained unchanged | non-hygroscopic |  |  | Cc1ncccc1Oc1cc(Sc2ccccn2)cnc1Nc1nc([C@H](O)CO)ns1 [Form F, (1S)-1-[5-({3-[(2-methylpyridin-3-yl)oxy]-5-(pyridin-2-ylsulfanyl)pyridin-2-yl}amino)-1,2,4-thiadiazol-3-yl]ethane-1,2-diol] |  | time found chemically stable [2]: up to 4 months; form change on storage ([3]; 40° C./75% RH): no form change; form change on storage ([3]; 60° C., listed as free base form F): no form change |
| converted to an amorphous phase | hygroscopic | above 75 % relative humidity | 20 | Cc1ncccc1Oc1cc(Sc2ccccn2)cnc1Nc1nc([C@H](O)CO)ns1 [HCl salt Form B, (1S)-1-[5-({3-[(2-methylpyridin-3-yl)oxy]-5-(pyridin-2-ylsulfanyl)pyridin-2-yl}amino)-1,2,4-thiadiazol-3-yl]ethane-1,2-diol] |  |  |
| converted to Form C | hygroscopic | above 65 % relative humidity | 16.5 | Cc1ncccc1Oc1cc(Sc2ccccn2)cnc1Nc1nc([C@H](O)CO)ns1 [MSA salt Form B, (1S)-1-[5-({3-[(2-methylpyridin-3-yl)oxy]-5-(pyridin-2-ylsulfanyl)pyridin-2-yl}amino)-1,2,4-thiadiazol-3-yl]ethane-1,2-diol] | unstable as a function of relative humidity | sorbed water retained [1]: 2-3% |
| converted to Form A | slightly hygroscopic |  | 3.5 | Cc1ncccc1Oc1cc(Sc2ccccn2)cnc1Nc1nc([C@H](O)CO)ns1 [phosphate salt Form B, (1S)-1-[5-({3-[(2-methylpyridin-3-yl)oxy]-5-(pyridin-2-ylsulfanyl)pyridin-2-yl}amino)-1,2,4-thiadiazol-3-yl]ethane-1,2-diol] | unstable as a function of ambient relative humidity | weight loss upon drying ([1]; upon drying down to 5% relative humidity): 8.5% |
